What follows are compounds tested against Glycogen phosphorylase, muscle form (Oryctolagus cuniculus) (UniProt P00489) (assay: Tested for inhibition constant against glycogen phosphorylase b).
Design: scale not given here

Glycogen phosphorylase, muscle form (Oryctolagus cuniculus), sequence (P00489 whole entry, looked up): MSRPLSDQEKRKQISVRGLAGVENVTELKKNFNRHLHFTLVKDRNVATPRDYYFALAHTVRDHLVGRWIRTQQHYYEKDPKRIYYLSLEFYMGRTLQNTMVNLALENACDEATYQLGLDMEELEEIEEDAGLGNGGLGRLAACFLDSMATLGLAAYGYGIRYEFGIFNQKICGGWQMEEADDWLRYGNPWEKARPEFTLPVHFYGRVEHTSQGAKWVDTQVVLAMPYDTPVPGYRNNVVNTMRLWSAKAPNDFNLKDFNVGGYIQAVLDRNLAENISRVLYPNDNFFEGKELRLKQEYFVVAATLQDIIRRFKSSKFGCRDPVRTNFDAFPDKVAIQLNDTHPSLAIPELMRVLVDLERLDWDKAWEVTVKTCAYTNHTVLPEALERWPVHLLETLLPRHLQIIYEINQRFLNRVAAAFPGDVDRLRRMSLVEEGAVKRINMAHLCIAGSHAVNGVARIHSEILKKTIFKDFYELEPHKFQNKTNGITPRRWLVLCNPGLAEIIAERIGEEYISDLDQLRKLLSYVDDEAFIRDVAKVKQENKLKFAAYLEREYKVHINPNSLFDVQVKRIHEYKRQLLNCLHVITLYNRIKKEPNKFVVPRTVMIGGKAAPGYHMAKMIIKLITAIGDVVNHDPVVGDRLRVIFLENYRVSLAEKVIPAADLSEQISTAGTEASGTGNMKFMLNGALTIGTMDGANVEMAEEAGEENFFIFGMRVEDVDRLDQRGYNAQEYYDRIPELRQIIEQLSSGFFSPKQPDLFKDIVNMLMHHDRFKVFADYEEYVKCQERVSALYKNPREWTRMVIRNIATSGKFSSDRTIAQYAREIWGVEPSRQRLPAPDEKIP

Exp Inhib Constant	Compound
3.54	NCC1OC(CO)C(O)C(O)C1O (stereo in doubt; 14)
3.6	NC(=O)[C@H]1O[C@H](CO)[C@@H](O)[C@H](O)[C@H]1O
3.19	COC(=O)C1OC(CO)C(O)C(O)C1O (stereo in doubt; 31)
0.96	OC[C@H]1O[C@@H](Oc2cc3ccccc3[nH]2)[C@H](O)[C@@H](O)[C@@H]1O
3.97	CC1OC(CO)C(O)C(O)C1O (stereo not given)
-1.61	OCC1OC(F)C(F)C(O)C1O (stereo not given)
2.03	N#CC[C@]1(O)O[C@H](CO)[C@@H](O)[C@H](O)[C@H]1O
-0.82	NC(=O)C1OC(CO)C(O)C(O)C1O (stereo in doubt; 27)
0.69	O[C@@H]1[C@@H](O)[C@@H](O)O[C@H](CS)[C@H]1O
2.53	O=C(Nc1ccccc1)C1OC(CO)C(O)C(O)C1O (stereo not given)
1.5	NCCC1OC(CO)C(O)C(O)C1O (stereo not given)
-1.61	NC(=O)[C@@H]1O[C@H](CO)[C@@H](O)[C@H](O)[C@H]1O
2.82	NCC1OC(CO)C(O)C(O)C1O (stereo in doubt; 15)
3.05	NC(=O)CS[C@H]1O[C@H](CO)[C@@H](O)[C@H](O)[C@H]1O
0.92	COC(=O)C1OC(CO)C(O)C(O)C1O (stereo in doubt; 33)
3.09	OCC1OC(CO)C(O)C(O)C1O (stereo in doubt; 10)
2.76	OC[C@@H]1O[C@@](O)(CO)[C@@H](O)[C@@H](O)[C@@H]1O
1.1	NNC(=O)[C@@H]1O[C@H](CO)[C@@H](O)[C@H](O)[C@H]1O (stereo in doubt; 25)

Exp Inhib Constant	Compound
2.79	OC[C@H]1O[C@H](OCC2O[C@@H](O)[C@H](O)[C@@H](O)[C@@H]2O)[C@H](O)[C@@H](O)[C@H]1O (stereo not given in full)
-0.92	NNC(=O)[C@@H]1O[C@H](CO)[C@@H](O)[C@H](O)[C@H]1O (stereo in doubt; 35)
0	OCC1OC(S)C(O)C(O)C1O (stereo not given)
-0.99	NC(=O)C1OC(CO)C(O)C(O)C1O (stereo in doubt; 20)
-3.22	O=C(CCl)N[C@H]1O[C@H](CO)[C@@H](O)[C@H](O)[C@H]1O
3.23	OCCO[C@@H]1O[C@H](CO)[C@@H](O)[C@H](O)[C@H]1O
1.57	CS(=O)(=O)OCC1OC(CO)C(O)C(O)C1O (stereo not given)
2.15	OCc1ccccc1O[C@H]1O[C@H](CO)[C@@H](O)[C@H](O)[C@H]1O
3.11	[N-]=[N+]=NC[C@H]1O[C@H](CO)[C@@H](O)[C@H](O)[C@H]1O
1.31	CS(=O)(=O)OC[C@]1(O)O[C@@H](CO)[C@@H](O)[C@H](O)[C@@H]1O
0.41	OCC1OC(CO)C(O)C(O)C1O (stereo in doubt; 9)
3.21	CO[C@@H]1O[C@H](CO)[C@H](O)[C@H](O)[C@H]1O
2.2	N#CC[C@@H]1O[C@H](CO)[C@@H](O)[C@H](O)[C@H]1O
1.72	O=C(Nc1ccc(O)cc1)C1OC(CO)C(O)C(O)C1O (stereo not given)
2.72	[N-]=[N+]=NC[C@@H]1O[C@H](CO)[C@@H](O)[C@H](O)[C@H]1O
2	[N-]=[N+]=NC[C@@]1(O)O[C@@H](CO)[C@@H](O)[C@H](O)[C@@H]1O
2.49	CO[C@H]1O[C@H](CO)[C@H](O)[C@H](O)[C@H]1O

Reference: ChEMBL document CHEMBL1127755, “Comparative molecular field analysis using GRID force-field and GOLPE variable selection methods in a study of inhibitors of glycogen phosphorylase b” (J Med Chem, 1994)
